Assay results from patent publication US8217069B2, “Nitrogenated fused ring derivative, pharmaceutical composition comprising the same, and use of the same for medical purposes” (Kissei Pharmaceutical Co., Ltd., priority 2007, dated 2012).
pIC50: −log10 of the molar value.

The molecules below were run against T1, human GnRH receptor1 (GnRHR1) (Homo sapiens, UniProt P30968) (assay: Assay of inhibitory effect for the change of calcium levels in GnRH-stimulated cells (hGnRHR1#1 HEK293 cells, FLIPR Calcium Assay Kit)). Details: drug concentration at which 50% GnRH-stimulated intracellular calcium flux was inhibited, 10 nM GnRH.
T1 construct: expressed in transfected cells
T1 sequence (P30968 1-328): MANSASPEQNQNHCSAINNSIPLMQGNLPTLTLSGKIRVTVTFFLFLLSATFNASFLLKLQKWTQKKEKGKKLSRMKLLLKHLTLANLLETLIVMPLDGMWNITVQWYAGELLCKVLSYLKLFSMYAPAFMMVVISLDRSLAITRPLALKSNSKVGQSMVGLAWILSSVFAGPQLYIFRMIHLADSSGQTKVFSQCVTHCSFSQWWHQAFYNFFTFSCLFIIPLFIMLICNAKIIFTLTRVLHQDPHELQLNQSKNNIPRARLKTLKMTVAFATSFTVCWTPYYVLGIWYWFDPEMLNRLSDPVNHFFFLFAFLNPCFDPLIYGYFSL
Format: cell-based
From the text: 1) Cloning and Construction of the Vector Expressing Human GnRH Receptor1 (GnRHR1)
Using cDNA derived from human pituitary (BECTON DICKINSON) as a template, the DNA fragment coding 45 to 1115 bp of human GnRHR1 (Accession No. L03380), which was reported by Kakar et al., was amplified by PCR method and inserted into the multi-cloning site of pcDNA3.1(+) (Invitrogen). The DNA sequence inserted was perfectly matched to the previously reported sequence.
2) Establishment of Cell Line Stably Expressing Human GnRH Receptor1 HEK293 Cells
The expression vector of human GnRHR1 gene, was digested by XhoI into a linear DNA. The linear DNA was transfected into HEK293 cells by means of lipofection (Lipofectamine-2000: Invitrogen). Neomycin resistant cell lines were selected by culture in the medium containing G418 (Invitrogen) at 1 mg/mL, and then the change of calcium levels in GnRH-stimulated cells was measured by the method described below.
3) Assay of Inhibitory Effect for the Change of Calcium Levels in GnRH-Stimulated Cells
Antagonizing effect of compounds for human GnRHR1 was evaluated by depression of calcium levels in GnRH-stimulated cells. hGnRHR1#1 cells were seeded into a 96-well culture plate at a density of 1.5×10^5 cells/well and cultured for a day. After removing the culture medium, cells were washed with 200 μL per well of the washing buffer (Hanks' Balanced Salt Solutions, 20 mM N-2-hydroxyethylpiperazine-N′-2-ethanesulfonic acid, 1.3 mM calcium chloride, 0.5 mM magnesium chloride, 0.4 mM magnesium sulfate). One hundred μL of the Ca^2+ sensitive dye solution (FLIPR Calcium Assay Kit, Molecular Devices) was added to the well, and the cells were incubated for 1 hour at 37° C. in 5% CO2 incubator. Then, intracellular calcium levels were determined under the following condition by using FLEX STATION (Molecular Devices). In the equipment, which was warmed to 37° C., 50 μL of test compound diluted with the measurement buffer (the washing buffer with 0.1% Albumin bovine serum) was added to the well. After 1 minute, 50 μL of 10 nM GnRH was added to the well. The drug concentration, at which 50% GnRH-stimulated intracellular calcium flux was inhibited (IC50 value), was calculated using logit plot (Table 106).

SMILES	pIC50
COc1cc(Cl)c(-n2c(=O)[nH]c3c(OC)ncnc32)cc1OCc1c(OC)ccc(F)c1F [Example 39]	7.57
CNC(=O)COc1cc(Cl)c(-n2c(=O)[nH]c3c(OC)nc(C(C)=O)nc32)cc1OCc1c(OC)ccc(F)c1F [Example 346]	7.42
COc1cc(Cl)c(-n2c(=O)[nH]c3c(OC)nc(CCO)nc32)cc1OCc1c(F)cccc1OC [Example 314, 9-[2-Chloro-5-(2-fluoro-6-methoxybenzyloxy)-4-methoxyphenyl]-2-(2-hydroxyethyl)-6-methoxy-7,9-dihydro-8H-purin-8-one]	7.64
COc1cc(Cl)c(-n2c(=O)[nH]c3c(C)nc(N)nc32)cc1OCc1c(OC)ccc(F)c1F [Example 381, 2-Amino-9-[2-chloro-5-(2,3-difluoro-6-methoxybenzyloxy)-4-methoxyphenyl]-6-methyl-7,9-dihydro-8H-purin-8-one]	7.44
COc1ccc(F)c(F)c1COc1cc(-n2c(=O)[nH]c3c(OC)nc(CF)nc32)c(Cl)cc1OCC(=O)NCCO [Example 341]	7.49
COc1cccc(F)c1COc1cc(-n2c(=O)[nH]c3c(OC)nc(CF)nc32)c(Cl)cc1OCCO [Example 251]	7.27
CCNC(=O)COc1cc(Cl)c(-n2c(=O)[nH]c3c(C(C)=O)nc(C)nc32)cc1OCc1c(F)cccc1OC [Example 452]	7.72
COc1ncnc2c1[nH]c(=O)n2-c1cc(OCc2c(OCCNC(C)=O)ccc(F)c2F)ccc1Cl [Example 262]	7.21
COc1ccc(F)c(F)c1COc1cc(-n2c(=O)[nH]c3c(OC)nc(C(F)F)nc32)c(Cl)cc1OCC(=O)N(C)C [Example 345]	7.77

The remaining lines, values ahead:

pIC50	SMILES
7.62	COc1cccc(F)c1C(C)(C)S(=O)(=O)c1ccc(Cl)c(-n2c(=O)[nH]c3c(C)cc(C(=O)O)nc32)c1 [Example 128]
7.82	COc1cccc(F)c1COc1cc(-n2c(=O)[nH]c3c(OC)nc(CO)nc32)c(Cl)cc1OCC(=O)O [Example 274]
7.34	COc1ccccc1N(C)S(=O)(=O)c1ccc(Cl)c(-n2c(=O)[nH]c3c(OC)ncnc32)c1 [Example 199]
6.71	CC(C)(c1ccccc1)S(=O)(=O)c1ccc(Cl)c(-n2c(=O)[nH]c3ccc(C(=O)O)nc32)c1 [Example 35]
7.49	Cc1cc(CO)nc2c1[nH]c(=O)n2-c1cc(S(=O)(=O)N2CCCCc3ccccc32)ccc1Cl [Example 152, 3-[2-Chloro-5-(2,3,4,5-tetrahydro-1H-1-benzoazepin-1-ylsulfonyl)phenyl]-5-hydroxymethyl-7-methyl-1,3-dihydro-2H-imidazo[4,5-b]pyridin-2-one]
7.70	Cc1cc(C(=O)O)nc2c1[nH]c(=O)n2-c1cc(S(=O)(=O)N2CCCCc3ccccc32)ccc1F [Example 93]
7.00	Cc1cc(/C(N)=N/O)nc2c1[nH]c(=O)n2-c1cc(S(=O)(=O)N2CCCCc3ccccc32)ccc1Cl [Example 160, 3-[2-Chloro-5-(2,3,4,5-tetrahydro-1H-1-benzoazepin-1-ylsulfonyl)phenyl]-5-hydroxycarbamimidoyl-7-methyl-1,3-dihydro-2H-imidazo[4,5-b]pyridin-2-one]
7.49	COc1ccc(F)c(F)c1CN(C(C)=O)c1ccc(Cl)c(-n2c(=O)[nH]c3c(C)cc(C(=O)O)nc32)c1 [Example 81]
7.44	COc1cc(F)c(-n2c(=O)[nH]c3c(C)cc(C(=O)O)nc32)cc1SC(C)(C)c1ccccc1Cl [Example 109]
